Results reported in ChEMBL document CHEMBL3885861, “Open TG-GATES”.

Organism: Rattus norvegicus
Test: Open TG-GATES - Regimen: Single
Type: toxicity, organism-based, Sprague-Dawley
Parameters: regimen Single, gender Male, age 6 weeks
Settings: in vivo, po, route gavage; for APTT / Bas / Eos / Fbg / Hb / Ht / Lym / MCH / MCHC / MCV / Mono / Neu / PT / Plat / RBC / Ret / WBC: tissue Blood; for KIDNEY_L / KIDNEY_R / KIDNEY_TOTAL: tissue Kidney; for LIVER: tissue Liver; for A/G / ALP / ALT / AST / BUN / CRE / Ca / Cl / DBIL / GLC / IP / K / LDH / Na / PL / RALB / TBIL / TC / TG / TP / gamma-GTP: tissue Plasma
[1] = 100 mg/kg, 3 h, dose level Middle
[2] = 100 mg/kg, 6 h, dose level Middle
[3] = 100 mg/kg, 9 h, dose level Middle
[4] = 100 mg/kg, 24 h, dose level Middle
[5] = 300 mg/kg, 3 h, dose level High
[6] = 300 mg/kg, 6 h, dose level High
[7] = 300 mg/kg, 9 h, dose level High
[8] = 300 mg/kg, 24 h, dose level High

ClC(Cl)(Cl)Cl [CARBON TETRACHLORIDE]
TERMINAL_BW [1]: 207.5 g
APTT [1]: 20.3 s
Bas [1]: 0%
Eos [1]: 1%
Fbg [1]: 222.4 mg/dL
Hb [1]: 12.7 g/dL
Ht [1]: 36.6%
Lym [1]: 76.4%
MCH [1]: 21.8 pg
MCHC [1]: 34.8%
MCV [1]: 62.7 fL
Mono [1]: 2.8%
Neu [1]: 19.8%
PT [1]: 12.6 s
Plat [1]: 129.7 x10_4/uL
RBC [1]: 583.2 x10_4/ul
Ret [1]: 8.7%
WBC [1]: 76.6 x10_2/uL
KIDNEY_L [1]: 0.9 g
KIDNEY_R [1]: 0.9 g
KIDNEY_TOTAL [1]: 1.8 g
LIVER [1]: 9.4 g
A/G [1]: 1.7
ALP [1]: 1077.4 IU/L
ALT [1]: 36.2 IU/L
AST [1]: 70 IU/L
BUN [1]: 10.2 mg/dL
CRE [1]: 0.4 mg/dL
Ca [1]: 10.8 mg/dL
Cl [1]: 104.6 meq/L
DBIL [1]: 0.1 mg/dL
GLC [1]: 186.4 mg/dL
IP [1]: 9.4 mg/dL
K [1]: 3.9 meq/L
LDH [1]: 156 IU/L
Na [1]: 140.2 meq/L
PL [1]: 148.6 mg/dL
RALB [1]: 3.4 g/dL
TBIL [1]: 0.2 mg/dL
TC [1]: 73.6 mg/dL
TG [1]: 103.8 mg/dL
TP [1]: 5.4 g/dL
gamma-GTP [1]: 1.2 IU/L
TERMINAL_BW [2]: 204.2 g
APTT [2]: 18 s
Bas [2]: 0%
Eos [2]: 1%
Fbg [2]: 224.8 mg/dL
Hb [2]: 13.3 g/dL
Ht [2]: 38.1%
Lym [2]: 71.2%
MCH [2]: 21.8 pg
MCHC [2]: 35%
MCV [2]: 62.4 fL
Mono [2]: 3%
Neu [2]: 24.8%
PT [2]: 12.7 s
Plat [2]: 134.8 x10_4/uL
RBC [2]: 611 x10_4/ul
Ret [2]: 8.8%
WBC [2]: 76 x10_2/uL
KIDNEY_L [2]: 0.9 g
KIDNEY_R [2]: 0.9 g
KIDNEY_TOTAL [2]: 1.8 g
LIVER [2]: 9 g
A/G [2]: 1.8
ALP [2]: 913.2 IU/L
ALT [2]: 35 IU/L
AST [2]: 65.6 IU/L
BUN [2]: 11.4 mg/dL
CRE [2]: 0.4 mg/dL
Ca [2]: 10.5 mg/dL
Cl [2]: 104 meq/L
DBIL [2]: 0.1 mg/dL
GLC [2]: 190.2 mg/dL
IP [2]: 10.2 mg/dL
K [2]: 3.9 meq/L
LDH [2]: 164.6 IU/L
Na [2]: 140.2 meq/L
PL [2]: 154.4 mg/dL
RALB [2]: 3.5 g/dL
TBIL [2]: 0.2 mg/dL
TC [2]: 78.8 mg/dL
TG [2]: 67.2 mg/dL
TP [2]: 5.4 g/dL
gamma-GTP [2]: 1.4 IU/L
TERMINAL_BW [3]: 205.2 g
APTT [3]: 18.5 s
Bas [3]: 0%
Eos [3]: 0.8%
Fbg [3]: 229.8 mg/dL
Hb [3]: 12.9 g/dL
Ht [3]: 37%
Lym [3]: 74.2%
MCH [3]: 21.2 pg
MCHC [3]: 34.8%
MCV [3]: 60.8 fL
Mono [3]: 3%
Neu [3]: 21.8%
PT [3]: 12.5 s
Plat [3]: 125.2 x10_4/uL
RBC [3]: 610.4 x10_4/ul
Ret [3]: 8%
WBC [3]: 72.7 x10_2/uL
KIDNEY_L [3]: 0.9 g
KIDNEY_R [3]: 0.9 g
KIDNEY_TOTAL [3]: 1.8 g
LIVER [3]: 8.4 g
A/G [3]: 1.6
ALP [3]: 848.2 IU/L
ALT [3]: 28.2 IU/L
AST [3]: 62.4 IU/L
BUN [3]: 11.4 mg/dL
CRE [3]: 0.4 mg/dL
Ca [3]: 10.5 mg/dL
Cl [3]: 103.6 meq/L
DBIL [3]: 0.1 mg/dL
GLC [3]: 196 mg/dL
IP [3]: 10.3 mg/dL
K [3]: 3.7 meq/L
LDH [3]: 173.2 IU/L
Na [3]: 140.4 meq/L
PL [3]: 141.2 mg/dL
RALB [3]: 3.3 g/dL
TBIL [3]: 0.2 mg/dL
TC [3]: 66.6 mg/dL
TG [3]: 65 mg/dL
TP [3]: 5.5 g/dL
gamma-GTP [3]: 0.8 IU/L
TERMINAL_BW [4]: 210.9 g
APTT [4]: 18.9 s
Bas [4]: 0%
Eos [4]: 1%
Fbg [4]: 229.8 mg/dL
Hb [4]: 13.6 g/dL
Ht [4]: 39.4%
Lym [4]: 79.4%
MCH [4]: 21.8 pg
MCHC [4]: 34.5%
MCV [4]: 63 fL
Mono [4]: 3.4%
Neu [4]: 15.8%
PT [4]: 12.6 s
Plat [4]: 126.7 x10_4/uL
RBC [4]: 625.2 x10_4/ul
Ret [4]: 8.6%
WBC [4]: 98.1 x10_2/uL
KIDNEY_L [4]: 0.9 g
KIDNEY_R [4]: 0.9 g
KIDNEY_TOTAL [4]: 1.8 g
LIVER [4]: 10.1 g
A/G [4]: 1.7
ALP [4]: 987 IU/L
ALT [4]: 38.2 IU/L
AST [4]: 70.2 IU/L
BUN [4]: 16.8 mg/dL
CRE [4]: 0.4 mg/dL
Ca [4]: 10.8 mg/dL
Cl [4]: 104.4 meq/L
DBIL [4]: 0.082 mg/dL
GLC [4]: 189.4 mg/dL
IP [4]: 8.1 mg/dL
K [4]: 4.1 meq/L
LDH [4]: 280 IU/L
Na [4]: 140.4 meq/L
PL [4]: 148.2 mg/dL
RALB [4]: 3.5 g/dL
TBIL [4]: 0.1 mg/dL
TC [4]: 70.4 mg/dL
TG [4]: 78 mg/dL
TP [4]: 5.6 g/dL
gamma-GTP [4]: 1 IU/L
TERMINAL_BW [5]: 206.7 g
APTT [5]: 18.3 s
Bas [5]: 0%
Eos [5]: 1%
Fbg [5]: 242 mg/dL
Hb [5]: 13 g/dL
Ht [5]: 37.2%
Lym [5]: 74.4%
MCH [5]: 21.8 pg
MCHC [5]: 34.9%
MCV [5]: 62.4 fL
Mono [5]: 2.2%
Neu [5]: 21.8%
PT [5]: 12.5 s
Plat [5]: 125.5 x10_4/uL
RBC [5]: 595.8 x10_4/ul
Ret [5]: 8.9%
WBC [5]: 76.7 x10_2/uL
KIDNEY_L [5]: 0.9 g
KIDNEY_R [5]: 0.9 g
KIDNEY_TOTAL [5]: 1.8 g
LIVER [5]: 9.4 g
A/G [5]: 1.6
ALP [5]: 909.4 IU/L
ALT [5]: 39.4 IU/L
AST [5]: 67.8 IU/L
BUN [5]: 12.2 mg/dL
CRE [5]: 0.4 mg/dL
Ca [5]: 10.5 mg/dL
Cl [5]: 104 meq/L
DBIL [5]: 0.1 mg/dL
GLC [5]: 187.4 mg/dL
IP [5]: 10.1 mg/dL
K [5]: 3.8 meq/L
LDH [5]: 201.4 IU/L
Na [5]: 140 meq/L
PL [5]: 156.4 mg/dL
RALB [5]: 3.3 g/dL
TBIL [5]: 0.2 mg/dL
TC [5]: 79.2 mg/dL
TG [5]: 90.8 mg/dL
TP [5]: 5.4 g/dL
gamma-GTP [5]: 1.2 IU/L
TERMINAL_BW [6]: 208.2 g
APTT [6]: 18.5 s
Bas [6]: 0%
Eos [6]: 0.8%
Fbg [6]: 231.4 mg/dL
Hb [6]: 13.1 g/dL
Ht [6]: 37.9%
Lym [6]: 77.2%
MCH [6]: 21.3 pg
MCHC [6]: 34.6%
MCV [6]: 61.7 fL
Mono [6]: 3%
Neu [6]: 18.4%
PT [6]: 13 s
Plat [6]: 125.2 x10_4/uL
RBC [6]: 614.2 x10_4/ul
Ret [6]: 8.6%
WBC [6]: 96.7 x10_2/uL
KIDNEY_L [6]: 0.9 g
KIDNEY_R [6]: 0.9 g
KIDNEY_TOTAL [6]: 1.8 g
LIVER [6]: 9.1 g
A/G [6]: 1.7
ALP [6]: 830.8 IU/L
ALT [6]: 29.8 IU/L
AST [6]: 65.2 IU/L
BUN [6]: 10.4 mg/dL
CRE [6]: 0.4 mg/dL
Ca [6]: 10.5 mg/dL
Cl [6]: 103.2 meq/L
DBIL [6]: 0.086 mg/dL
GLC [6]: 201.8 mg/dL
IP [6]: 10.1 mg/dL
K [6]: 4 meq/L
LDH [6]: 205.8 IU/L
Na [6]: 139.6 meq/L
PL [6]: 150.4 mg/dL
RALB [6]: 3.4 g/dL
TBIL [6]: 0.1 mg/dL
TC [6]: 73 mg/dL
TG [6]: 68.2 mg/dL
TP [6]: 5.5 g/dL
gamma-GTP [6]: 1.2 IU/L
TERMINAL_BW [7]: 203.7 g
APTT [7]: 19.1 s
Bas [7]: 0%
Eos [7]: 1%
Fbg [7]: 232.6 mg/dL
Hb [7]: 13.3 g/dL
Ht [7]: 37.9%
Lym [7]: 80.4%
MCH [7]: 21.5 pg
MCHC [7]: 35%
MCV [7]: 61.7 fL
Mono [7]: 2.8%
Neu [7]: 16%
PT [7]: 12.5 s
Plat [7]: 137.8 x10_4/uL
RBC [7]: 615.2 x10_4/ul
Ret [7]: 8.7%
WBC [7]: 72.4 x10_2/uL
KIDNEY_L [7]: 0.9 g
KIDNEY_R [7]: 0.9 g
KIDNEY_TOTAL [7]: 1.8 g
LIVER [7]: 8.8 g
A/G [7]: 1.5
ALP [7]: 987.6 IU/L
ALT [7]: 28.4 IU/L
AST [7]: 63.2 IU/L
BUN [7]: 9.4 mg/dL
CRE [7]: 0.4 mg/dL
Ca [7]: 10.5 mg/dL
Cl [7]: 103 meq/L
DBIL [7]: 0.1 mg/dL
GLC [7]: 193 mg/dL
IP [7]: 10.4 mg/dL
K [7]: 3.9 meq/L
LDH [7]: 200.2 IU/L
Na [7]: 139.4 meq/L
PL [7]: 150.8 mg/dL
RALB [7]: 3.3 g/dL
TBIL [7]: 0.2 mg/dL
TC [7]: 71 mg/dL
TG [7]: 80.2 mg/dL
TP [7]: 5.5 g/dL
gamma-GTP [7]: 1.2 IU/L
TERMINAL_BW [8]: 212.9 g
APTT [8]: 19.3 s
Bas [8]: 0%
Eos [8]: 1%
Fbg [8]: 225.4 mg/dL
Hb [8]: 13.5 g/dL
Ht [8]: 38.6%
Lym [8]: 79%
MCH [8]: 22.4 pg
MCHC [8]: 34.8%
MCV [8]: 64.4 fL
Mono [8]: 3.8%
Neu [8]: 15.6%
PT [8]: 12.6 s
Plat [8]: 131.5 x10_4/uL
RBC [8]: 599.6 x10_4/ul
Ret [8]: 7.8%
WBC [8]: 110.3 x10_2/uL
KIDNEY_L [8]: 1 g
KIDNEY_R [8]: 1 g
KIDNEY_TOTAL [8]: 2 g
LIVER [8]: 10.2 g
A/G [8]: 1.6
ALP [8]: 1310.2 IU/L
ALT [8]: 42.2 IU/L
AST [8]: 75 IU/L
BUN [8]: 16.4 mg/dL
CRE [8]: 0.4 mg/dL
Ca [8]: 10.8 mg/dL
Cl [8]: 103.8 meq/L
DBIL [8]: 0.08 mg/dL
GLC [8]: 183.8 mg/dL
IP [8]: 8 mg/dL
K [8]: 3.9 meq/L
LDH [8]: 192.6 IU/L
Na [8]: 140 meq/L
PL [8]: 139.6 mg/dL
RALB [8]: 3.5 g/dL
TBIL [8]: 0.1 mg/dL
TC [8]: 61.4 mg/dL
TG [8]: 69.6 mg/dL
TP [8]: 5.6 g/dL
gamma-GTP [8]: 1 IU/L
